Assay results: ChEMBL document CHEMBL3045215, “Synthesis and insecticidal activity of 3,4-dihydropyrimidine-2(1H)-thiones against the pulse beetle, Callosobruchus chinensis” (2011)

Assays:
Callosobruchus chinensis [1] = experiment: Insecticidal activity against Callosobruchus chinensis adults reared on green gram assessed as insect mortality at 1000 mg/L after 24 hr; format: functional
Callosobruchus chinensis [2] = experiment: Insecticidal activity against Callosobruchus chinensis adults reared on green gram assessed as insect mortality after 24 hr; format: functional

| SMILES | mortality at 1000 µg/mL (Callosobruchus chinensis [1]) | LC50 (Callosobruchus chinensis [2]) |
| --- | --- | --- |
| Cc1ccc(C2=CC(c3ccc(F)cc3)NC(=S)N2)cc1 (configuration not stated) | 68% | – |
| S=C1NC(c2ccc(Cl)cc2)=CC(c2ccccc2Cl)N1 (configuration not stated) | 85% | 0.00524 mg/cm2 |
| Cc1ccc(C2=CC(c3ccccc3)NC(=S)N2)cc1 (configuration not stated) | 66% | – |
| S=C1NC(c2ccccc2)=CC(c2ccc(Cl)cc2)N1 (configuration not stated) | 90% | 0.00289 mg/cm2 |
| COP(=O)(OC)OC=C(Cl)Cl [DICHLORVOS] | – | 0.00243 mg/cm2 |
| COc1ccc(C2C=C(c3ccc(C)cc3)NC(=S)N2)cc1 (configuration not stated) | 80% | – |
| COc1ccc(C2=CC(c3ccc(F)cc3)NC(=S)N2)cc1 (configuration not stated) | 86% | 0.00304 mg/cm2 |
| COc1ccc(C2=CC(c3ccc(Cl)cc3)NC(=S)N2)cc1 (configuration not stated) | 82% | 0.00175 mg/cm2 |
| COc1ccc(C2C=C(c3ccc(Cl)cc3)NC(=S)N2)cc1 (configuration not stated) | 40% | – |
| S=C1NC(c2ccc(Cl)cc2)=CC(c2ccc(Cl)cc2)N1 (configuration not stated) | 69% | – |
| Cc1ccc(C2=CC(c3ccccc3Cl)NC(=S)N2)cc1 (configuration not stated) | 87% | 0.00122 mg/cm2 |
| S=C1NC(c2ccc(Cl)cc2)=CC(c2ccccc2)N1 (configuration not stated) | 78% | 0.00556 mg/cm2 |
| COc1ccc(C2C=C(c3ccccc3)NC(=S)N2)cc1 (configuration not stated) | 60% | 0.00164 mg/cm2 |
| SC1=NC(c2ccccc2)=CC(c2ccccc2)N1 (configuration not stated) | 75% | 0.00795 mg/cm2 |
| Fc1ccc(C2C=C(c3ccc(Cl)cc3)NC(=S)N2)cc1 (configuration not stated) | 75% | 0.00461 mg/cm2 |
| COc1ccc(C2=CC(c3ccccc3Cl)NC(=S)N2)cc1 (configuration not stated) | 68% | – |
| COc1ccc(C2=CC(c3ccc(OC)cc3)NC(=S)N2)cc1 (configuration not stated) | 70% | – |
| Cc1ccc(C2=CC(c3ccc(Cl)cc3)NC(=S)N2)cc1 (configuration not stated) | 93% | 0.01227 mg/cm2 |
| S=C1NC(c2ccccc2)=CC(c2ccccc2Cl)N1 (configuration not stated) | 78% | 0.00201 mg/cm2 |
| Fc1ccc(C2C=C(c3ccccc3)NC(=S)N2)cc1 (configuration not stated) | 60% | – |
| COc1ccc(C2=CC(c3ccccc3)NC(=S)N2)cc1 (configuration not stated) | 68% | – |
